Measurements from article PMC4022671, “Characterization of Mannitol-2-Dehydrogenase in Saccharina japonica: Evidence for a New Polyol-Specific Long-Chain Dehydrogenases/Reductase” (PLoS ONE, 2014).

Target: T1, SjM2DH (mannitol-2-dehydrogenase) (Saccharina japonica, UniProt R9UHL6)
T1 construct: assayed in cell-free extract
Test: NADH depletion at OD340, crude E. coli extract with recombinant enzyme
Type: biochemical
Conditions: NADH 1 mM, fructose 100 mM, 100 mM Tris-HCl pH 7.5, 35 °C

T1 sequence (R9UHL6 entry or part of it): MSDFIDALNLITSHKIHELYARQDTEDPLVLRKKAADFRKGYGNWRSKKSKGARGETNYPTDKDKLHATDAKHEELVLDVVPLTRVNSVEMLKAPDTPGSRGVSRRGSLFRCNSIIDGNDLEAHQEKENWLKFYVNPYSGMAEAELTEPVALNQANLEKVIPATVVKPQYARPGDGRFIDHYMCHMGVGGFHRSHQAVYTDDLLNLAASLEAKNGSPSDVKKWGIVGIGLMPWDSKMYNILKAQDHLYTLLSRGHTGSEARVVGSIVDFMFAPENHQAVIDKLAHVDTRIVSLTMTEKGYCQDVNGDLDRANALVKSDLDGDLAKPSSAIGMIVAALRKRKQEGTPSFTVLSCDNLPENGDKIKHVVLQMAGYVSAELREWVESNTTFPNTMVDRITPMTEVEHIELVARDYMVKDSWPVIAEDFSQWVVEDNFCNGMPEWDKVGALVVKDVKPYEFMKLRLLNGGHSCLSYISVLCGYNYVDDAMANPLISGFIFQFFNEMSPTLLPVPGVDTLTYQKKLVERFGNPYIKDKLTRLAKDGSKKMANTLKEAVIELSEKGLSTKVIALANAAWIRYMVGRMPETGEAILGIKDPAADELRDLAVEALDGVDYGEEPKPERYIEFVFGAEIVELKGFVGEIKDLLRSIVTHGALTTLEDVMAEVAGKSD

Structure (SMILES)	NADH depletion at OD340, crude E. coli extract with recombinant enzyme
OCC1(O)OC[C@@H](O)[C@@H](O)[C@@H]1O (stereo partly drawn) [D-fructose]	When D-fructose was applied as the substrate, a depletion of NADH was detected
NC(=O)C1=CN([C@@H]2O[C@H](COP(=O)(O)OP(=O)(O)OC[C@H]3O[C@@H](n4cnc5c(N)ncnc54)[C@H](O)[C@@H]3O)[C@@H](O)[C@H]2O)C=CC1 [NADH]	reduction of fructose by recombinant SjM2DH exclusively uses NADH as cofactor
